Source: the NIST ThermoML archive (doi:10.1021/je900525f)

Experiments:
[1] = 101 kPa, Liquid; for viscosity: Capillary tube (Ostwald / Ubbelohde) method; for speed of sound: Pulse-echo method
[2] = xn = mol fraction of the nth substance listed; details: 101 kPa, Liquid; for viscosity: Capillary tube (Ostwald / Ubbelohde) method; for speed of sound: Pulse-echo method

N#CCc1ccccc1 [benzeneacetonitrile]
[1]
Details | mass density [kg/m3] | speed of sound [m/s] | viscosity [mPa·s]
303.15 K | 1008.8 | 1519.2 | 1.761
308.15 K | 1004.1 | 1512.9 | 1.602
313.15 K | 999.5 | 1503.4 | 1.489

N#CCc1ccccc1 [benzeneacetonitrile] + CCOC(=O)CC#N
[2], x1 = 1
Details | mass density [kg/m3] | speed of sound [m/s] | viscosity [mPa·s]
303.15 K | 1008.8 | 1519.2 | 1.761
308.15 K | 1004.1 | 1512.9 | 1.602
313.15 K | 999.5 | 1503.4 | 1.489

N#CCc1ccccc1 [benzeneacetonitrile] + CCOC(=O)CCl
[2], x1 = 1
Details | mass density [kg/m3] | speed of sound [m/s] | viscosity [mPa·s]
303.15 K | 1008.8 | 1519.2 | 1.761
308.15 K | 1004.1 | 1512.9 | 1.602
313.15 K | 999.5 | 1503.4 | 1.489

CCOC(C)=O [ethyl acetate]
[1]
Details | mass density [kg/m3] | speed of sound [m/s] | viscosity [mPa·s]
303.15 K | 888.9 | 1118.5 | 0.379
308.15 K | 882.6 | 1097.8 | 0.361
313.15 K | 875.9 | 1081.2 | 0.344

CCOC(C)=O [ethyl acetate] + N#CCc1ccccc1
[2], x2 = 0
Details | mass density [kg/m3] | speed of sound [m/s] | viscosity [mPa·s]
303.15 K | 888.9 | 1118.5 | 0.379
308.15 K | 882.6 | 1097.8 | 0.361
313.15 K | 875.9 | 1081.2 | 0.344

CCOC(=O)CCl [ethyl chloroethanoate]
[1]
Details | mass density [kg/m3] | speed of sound [m/s] | viscosity [mPa·s]
303.15 K | 1139.3 | 1229.4 | 0.9692
308.15 K | 1132.5 | 1212.4 | 0.8979
313.15 K | 1125.9 | 1197.6 | 0.8341

CCOC(=O)CC#N [ethyl cyanoacetate]
[1]
Details | mass density [kg/m3] | speed of sound [m/s] | viscosity [mPa·s]
303.15 K | 1051.4 | 1396.9 | 2.186
308.15 K | 1046.5 | 1384.8 | 1.962
313.15 K | 1040.8 | 1367.7 | 1.77
